The source made the active and inactive calls. The rule behind the calls is not given here.
Columns and labels:
[1] = Half life in human plasma by LC-MS/MS method; assay type: ADME, cell-free
K562 [2] = assay: Toxicity in human K562 cells assessed as reduction in cell viability at 0.1 to 3 uM incubated for 72 hrs by MTT assay; assay type: cell-based; details: k562, 72 h
[3] = Toxicity in human K562/Dox cells assessed as reduction in cell viability at 0.1 to 3 uM incubated for 72 hrs by MTT assay; assay type: cell-based
K562 [4] = assay: Potentiation of doxorubicin-induced cytotoxicity in human K562 cells assessed as reduction in cell viability at 0.1 to 3 uM incubated for 72 hrs by MTT assay; assay type: cell-based; details: k562, 72 h
Homo sapiens [5] = species: Homo sapiens; assay: Inhibition of P-gp in human K562/DOX cells assessed as potentiation of doxorubicin-induced cytotoxicity by measuring reduction in doxorubicin IC50 at 0.1 uM incubated for 72 hrs by MTT assay relative to control; assay type: cell-based
Homo sapiens [6] = species: Homo sapiens; assay: Inhibition of P-gp in human K562/DOX cells assessed as potentiation of doxorubicin-induced cytotoxicity by measuring reduction in doxorubicin IC50 at 1 uM incubated for 72 hrs by MTT assay relative to control; assay type: cell-based
Homo sapiens [7] = species: Homo sapiens; assay: Inhibition of P-gp in human K562/DOX cells assessed as potentiation of doxorubicin-induced cytotoxicity by measuring reduction in doxorubicin IC50 at 3 uM incubated for 72 hrs by MTT assay relative to control; assay type: cell-based
K562 [8] = assay: Effect on rhodamine-123 efflux in human K562 cells at 1 uM incubated for 10 mins hrs by flow cytometry; assay type: ADME, cell-based; details: k562, 10 min
K562 [9] = assay: Inhibition of P-gp in human K562/DOX cells assessed as increase in rhodamine-123 […] in human K562 cells at 1 uM incubated for 10 mins hrs by flow cytometry relative to untreated control; assay type: cell-based
[10] = Stability in PBS buffer assessed as drug degradation incubated for 30 to 120 mins by LC-MS/MS method; assay type: physicochemical; details: read-out: Drug degradation
[11] = Stability in presence of bovine serum and human K562/DOX cells assessed as drug degradation incubated for 30 to 120 mins by LC-MS/MS method; assay type: ADME; details: K562/DOX cells with bovine serum, read-out: Drug degradation
Homo sapiens [12] = species: Homo sapiens
Description: Inhibition of P-gp in human K562/DOX cells assessed as drug level causing 50% increase in nuclear pirarubicin concentration incubated for 30 mins by spectroflurometry

[13] = Stability in human plasma assessed as parent compound remaining incubated for 120 mins by LC-MS/MS method; assay type: ADME, cell-free; details: read-out: Stability

SMILES	half-life [1] [h]	Activity (K562 [2])	Activity [3]	Activity (K562 [4])	Ratio IC50 (Homo sapiens [5])	Ratio IC50 (Homo sapiens [6])	Ratio IC50 (Homo sapiens [7])	Activity (K562 [8])	fold change (FC) (K562 [9])	degraded [10] [%]	metabolised [11] [%]	I0.5 (Homo sapiens [12]) [µM]	remaining at 2 h [13] [%]	inhibition (K562 [9])
COc1cc(/C=C/C(=O)O[C@H]2CC[C@H](N(C)CCCCOC(=O)c3cc(OC)c(OC)c(OC)c3)CC2)cc(OC)c1OC	≤ 2	Non-Toxic	Non-Toxic	Non-Toxic	3.3	12.9	50	Non-Toxic	60	< 5	< 5	0.06	–	–
COc1cc(/C=C/C(=O)OCCCCN(C)[C@H]2CC[C@H](OC(=O)c3cc(OC)c(OC)c(OC)c3)CC2)cc(OC)c1OC	2 to 4	–	–	–	–	–	–	–	–	< 5	< 5	0.08	50	–
COc1cc(/C=C/C(=O)OCCCCCN(C)[C@H]2CC[C@H](OC(=O)c3cc(OC)c(OC)c(OC)c3)CC2)cc(OC)c1OC	≥ 4	–	–	–	–	–	–	–	–	< 5	< 5	0.1	–	–
COc1cc(/C=C/C(=O)OCCCN(C)[C@H]2CC[C@@H](OC(=O)c3cc(OC)c(OC)c(OC)c3)CC2)cc(OC)c1OC	2 to 4	–	–	–	–	–	–	–	–	< 5	< 5	0.25	75	–
COc1cc(/C=C/C(=O)O[C@H]2CC[C@@H](N(C)CCCCOC(=O)c3cc(OC)c(OC)c(OC)c3)CC2)cc(OC)c1OC	≥ 4	Non-Toxic	Non-Toxic	Non-Toxic	2.8	4.6	34.9	Non-Toxic	10 to 80	< 5	< 5	0.29	–	–
COc1cc2c(cc1OC)CN(CCc1ccc(NC(=O)c3cc(OC)c(OC)cc3NC(=O)c3cnc4ccccc4c3)cc1)CC2	–	–	–	–	–	29.7	–	–	–	–	–	–	–	Active
COc1cc(/C=C/C(=O)O[C@H]2CC[C@H](N(C)CCCCCOC(=O)c3cc(OC)c(OC)c(OC)c3)CC2)cc(OC)c1OC	≥ 4	Non-Toxic	Non-Toxic	Non-Toxic	2.3	32.8	57.9	Non-Toxic	80	< 5	< 5	0.13	–	–
COc1cc(/C=C/C(=O)O[C@H]2CC[C@H](N(C)CCCOC(=O)c3cc(OC)c(OC)c(OC)c3)CC2)cc(OC)c1OC	≤ 1	–	–	–	–	–	–	–	–	< 5	< 5	0.07	–	–
COc1cc(/C=C/C(=O)OCCCCCN(C)[C@H]2CC[C@@H](OC(=O)c3cc(OC)c(OC)c(OC)c3)CC2)cc(OC)c1OC	≥ 4	–	–	–	–	–	–	–	–	< 5	< 5	0.51	–	–
COc1cc(/C=C/C(=O)OCCCCN(C)[C@H]2CC[C@@H](OC(=O)c3cc(OC)c(OC)c(OC)c3)CC2)cc(OC)c1OC	≥ 4	–	–	–	–	–	–	–	–	< 5	< 5	0.35	–	–
CCOC(=O)C(C)c1cccc(C(=O)c2ccccc2)c1 (stereo not given)	< 2	–	–	–	–	–	–	–	–	–	–	–	–	–
COc1cc(/C=C/C(=O)O[C@H]2CC[C@@H](N(C)CCCOC(=O)c3cc(OC)c(OC)c(OC)c3)CC2)cc(OC)c1OC	≥ 4	–	–	–	–	–	–	–	–	< 5	< 5	0.47	–	–
COc1cc(/C=C/C(=O)O[C@H]2CC[C@@H](N(C)CCCCCOC(=O)c3cc(OC)c(OC)c(OC)c3)CC2)cc(OC)c1OC	≥ 4	Non-Toxic	Non-Toxic	Non-Toxic	1.6	5.5	14.7	Non-Toxic	10 to 80	< 5	< 5	0.09	–	–
COc1cc(/C=C/C(=O)OCCCN(C)[C@H]2CC[C@H](OC(=O)c3cc(OC)c(OC)c(OC)c3)CC2)cc(OC)c1OC	≤ 2	–	–	–	–	–	–	–	–	< 5	< 5	0.08	–	–
